From the Kinase Knowledgebase extract (Sharma et al. 2016)

Columns and labels:
[1] = molecular target: PIK3CD (Human) (UniProt O00329); experiment: Enzyme Assay
[2] = molecular target: PIK3CA (human) (UniProt P42336); experiment: Enzyme Assay
[3] = molecular target: PIK3CG (human) (UniProt P48736); experiment: Enzyme Assay
[4] = molecular target: PIK3CD (Human) (UniProt O00329); experiment: Cell-Based Assay; conditions: rat-1
[5] = molecular target: PIK3CA (human) (UniProt P42336); experiment: Cell-Based Assay; conditions: rat-1
[6] = molecular target: PIK3CG (human) (UniProt P48736); experiment: Cell-Based Assay; conditions: u937

Sequence of PIK3CA (human) (P42336 whole entry, looked up): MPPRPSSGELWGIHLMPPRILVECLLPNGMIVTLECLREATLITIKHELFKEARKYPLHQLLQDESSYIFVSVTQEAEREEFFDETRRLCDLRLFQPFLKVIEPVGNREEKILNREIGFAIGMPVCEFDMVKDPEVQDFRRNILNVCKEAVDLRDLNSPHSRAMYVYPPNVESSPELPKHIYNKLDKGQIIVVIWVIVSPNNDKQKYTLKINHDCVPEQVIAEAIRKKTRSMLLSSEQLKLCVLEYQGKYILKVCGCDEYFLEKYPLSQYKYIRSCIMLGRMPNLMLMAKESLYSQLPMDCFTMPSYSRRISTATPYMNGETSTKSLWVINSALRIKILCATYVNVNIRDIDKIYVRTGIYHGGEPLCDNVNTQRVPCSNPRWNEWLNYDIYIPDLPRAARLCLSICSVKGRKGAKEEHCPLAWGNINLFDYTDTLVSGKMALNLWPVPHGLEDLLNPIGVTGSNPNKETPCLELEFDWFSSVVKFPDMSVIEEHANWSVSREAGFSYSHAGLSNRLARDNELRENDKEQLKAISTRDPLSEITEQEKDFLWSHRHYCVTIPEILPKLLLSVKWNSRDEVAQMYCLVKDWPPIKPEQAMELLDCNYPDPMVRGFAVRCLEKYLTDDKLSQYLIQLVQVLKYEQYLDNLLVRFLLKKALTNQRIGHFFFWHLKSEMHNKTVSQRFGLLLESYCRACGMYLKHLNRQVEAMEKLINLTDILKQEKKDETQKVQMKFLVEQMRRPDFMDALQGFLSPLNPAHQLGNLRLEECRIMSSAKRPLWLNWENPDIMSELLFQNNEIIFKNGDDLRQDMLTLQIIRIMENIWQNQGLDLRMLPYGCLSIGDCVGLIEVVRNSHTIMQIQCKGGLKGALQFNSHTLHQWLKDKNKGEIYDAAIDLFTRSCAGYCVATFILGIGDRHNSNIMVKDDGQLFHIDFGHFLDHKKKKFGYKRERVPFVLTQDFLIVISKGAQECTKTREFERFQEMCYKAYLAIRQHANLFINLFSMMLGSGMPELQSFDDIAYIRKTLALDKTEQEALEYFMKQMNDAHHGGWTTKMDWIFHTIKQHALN
Sequence of PIK3CG (human) (P48736 whole entry, looked up): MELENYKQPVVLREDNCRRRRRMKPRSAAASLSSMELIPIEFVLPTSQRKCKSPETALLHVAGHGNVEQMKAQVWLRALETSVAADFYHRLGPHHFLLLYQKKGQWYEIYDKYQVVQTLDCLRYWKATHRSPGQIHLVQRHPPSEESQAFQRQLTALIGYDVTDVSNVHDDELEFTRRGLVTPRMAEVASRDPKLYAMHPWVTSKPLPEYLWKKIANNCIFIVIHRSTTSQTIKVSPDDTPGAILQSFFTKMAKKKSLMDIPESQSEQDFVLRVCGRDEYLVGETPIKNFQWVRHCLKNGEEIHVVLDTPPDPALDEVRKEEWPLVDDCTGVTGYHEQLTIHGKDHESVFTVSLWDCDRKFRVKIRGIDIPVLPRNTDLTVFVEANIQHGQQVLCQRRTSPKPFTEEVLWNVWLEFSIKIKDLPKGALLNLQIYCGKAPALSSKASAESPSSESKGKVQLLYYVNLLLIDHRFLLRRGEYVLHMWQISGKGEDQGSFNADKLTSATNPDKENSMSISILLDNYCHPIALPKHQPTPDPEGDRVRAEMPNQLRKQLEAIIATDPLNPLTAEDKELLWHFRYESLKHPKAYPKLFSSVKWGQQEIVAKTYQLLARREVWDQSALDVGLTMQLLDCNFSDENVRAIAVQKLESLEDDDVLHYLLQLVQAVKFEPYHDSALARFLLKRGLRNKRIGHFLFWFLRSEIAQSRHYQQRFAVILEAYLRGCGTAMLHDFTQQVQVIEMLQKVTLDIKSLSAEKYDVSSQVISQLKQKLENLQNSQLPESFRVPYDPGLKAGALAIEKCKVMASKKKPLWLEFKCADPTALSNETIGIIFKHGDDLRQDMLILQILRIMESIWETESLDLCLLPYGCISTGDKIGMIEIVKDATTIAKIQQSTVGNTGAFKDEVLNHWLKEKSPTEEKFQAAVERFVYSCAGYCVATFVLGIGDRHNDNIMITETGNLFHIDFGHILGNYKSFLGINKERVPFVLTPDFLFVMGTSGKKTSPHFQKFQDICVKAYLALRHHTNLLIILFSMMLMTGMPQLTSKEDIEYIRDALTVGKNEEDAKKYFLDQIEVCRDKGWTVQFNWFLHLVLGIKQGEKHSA
Sequence of PIK3CD (Human) (O00329 whole entry, looked up): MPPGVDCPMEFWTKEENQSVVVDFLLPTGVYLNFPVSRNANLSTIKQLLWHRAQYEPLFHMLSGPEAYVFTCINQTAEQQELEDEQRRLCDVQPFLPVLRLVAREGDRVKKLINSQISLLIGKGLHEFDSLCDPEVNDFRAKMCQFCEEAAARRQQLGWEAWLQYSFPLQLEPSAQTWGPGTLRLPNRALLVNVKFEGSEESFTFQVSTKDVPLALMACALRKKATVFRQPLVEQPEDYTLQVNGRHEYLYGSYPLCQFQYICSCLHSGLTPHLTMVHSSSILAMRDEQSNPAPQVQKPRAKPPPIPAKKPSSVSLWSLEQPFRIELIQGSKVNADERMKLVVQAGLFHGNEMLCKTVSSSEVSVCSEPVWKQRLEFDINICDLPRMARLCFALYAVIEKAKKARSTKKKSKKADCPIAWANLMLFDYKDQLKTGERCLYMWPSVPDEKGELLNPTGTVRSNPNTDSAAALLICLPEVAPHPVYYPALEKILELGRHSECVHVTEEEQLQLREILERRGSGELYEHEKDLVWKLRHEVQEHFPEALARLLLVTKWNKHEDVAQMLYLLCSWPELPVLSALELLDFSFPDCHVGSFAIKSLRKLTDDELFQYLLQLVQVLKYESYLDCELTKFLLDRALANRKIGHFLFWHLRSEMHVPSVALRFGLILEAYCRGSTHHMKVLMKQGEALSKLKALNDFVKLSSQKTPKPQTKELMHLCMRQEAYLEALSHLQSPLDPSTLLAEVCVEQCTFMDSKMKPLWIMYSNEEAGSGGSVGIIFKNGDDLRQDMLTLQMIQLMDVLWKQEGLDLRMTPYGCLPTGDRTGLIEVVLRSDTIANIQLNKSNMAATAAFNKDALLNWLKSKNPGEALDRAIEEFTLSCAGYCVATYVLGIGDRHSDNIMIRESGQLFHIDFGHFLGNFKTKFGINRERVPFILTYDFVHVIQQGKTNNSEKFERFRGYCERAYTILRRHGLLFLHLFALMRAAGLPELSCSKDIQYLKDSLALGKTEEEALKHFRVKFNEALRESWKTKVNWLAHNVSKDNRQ

| IC50 [1] | IC50 [2] | IC50 [3] | IC50 [4] | IC50 [5] | IC50 [6] | SMILES |
| --- | --- | --- | --- | --- | --- | --- |
| < 3 nM | 160 nM | < 3 nM | < 3 nM | 601 nM | 35 nM | Cc1nc(N)nc(N2C[C@@H](O)C[C@H]2c2nc3cccc(C)c3c(=O)n2-c2ccccc2)c1C#N |
| 11 nM | 2300 nM | 23 nM | 46 nM | 6630 nM | 119 nM | Nc1nc(N2CSC[C@H]2c2nc3cccc(Cl)c3c(=O)n2-c2ccccc2)c2nc[nH]c2n1 |
| 26 nM | 2500 nM | 38 nM | 50 nM | 8250 nM | 71 nM | Nc1nc(N2C[C@@H](F)C[C@H]2c2nc3cccc(C(F)(F)F)c3c(=O)n2-c2cccc(F)c2)c2nc[nH]c2n1 |
| 960 nM | 1800 nM | 220 nM | 67 nM | > 10000 nM | 206 nM | Cc1nc(N)nc(N2C[C@@H](O)C[C@H]2c2nc3cccc(C(F)(F)F)c3c(=O)n2-c2cccnc2)c1C#N |
| 14 nM | 270 nM | 24 nM | 7 nM | 1090 nM | 18 nM | Cc1nc(N)nc(N2C[C@@H](O)C[C@H]2c2nc3ccc(F)c(C)c3c(=O)n2-c2ccccc2)c1C#N |
| 53 nM | > 10000 nM | 1900 nM | 117 nM | > 10000 nM | 1890 nM | CO[C@H]1C[C@@H](c2nc3cccc(C(F)(F)F)c3c(=O)n2N2CCOCC2)N(c2ncnc(N)c2C#N)C1 |
| 11 nM | 510 nM | 27 nM | 87 nM | 7540 nM | 38 nM | Nc1nc(N2C[C@@H](O)C[C@H]2c2nc3cccc(C(F)(F)F)c3c(=O)n2-c2ccccc2)c2nc[nH]c2n1 |
| 38 nM | 5500 nM | 1100 nM | 103 nM | > 10000 nM | 1580 nM | Cc1nc(N)nc(N2CCC[C@H]2c2nc3ccc(F)c(S(C)(=O)=O)c3c(=O)n2-c2ccccc2)c1C#N |
| 84 nM | 3800 nM | 1300 nM | 86 nM | 3860 nM | 163 nM | N#Cc1c(N)ncnc1N1C[C@@H](O)C[C@H]1c1nc2cccc(C(F)(F)F)c2c(=O)n1-c1cccnc1 |
| 5 nM | 620 nM | 34 nM | 17 nM | > 10000 nM | 117 nM | O=c1c2c(Cl)cccc2nc([C@@H]2C[C@H](OC(F)F)CN2c2ncnc3[nH]cnc23)n1-c1ccccc1 |
| 128 nM | 2800 nM | 417 nM | 26 nM | 3230 nM | 473 nM | CO[C@H]1C[C@@H](c2nc3cccc(Cl)c3c(=O)n2C2CC2)N(c2ncnc(N)c2C#N)C1 |
| 75 nM | 2700 nM | 950 nM | 98 nM | 5930 nM | 934 nM | N#Cc1c(N)ncnc1N1CCC[C@H]1c1nc2cccc(C(F)(F)F)c2c(=O)n1-c1cccnc1 |
| < 3 nM | 393 nM | 24 nM | 7 nM | 1750 nM | 74 nM | N#Cc1c(N)ncnc1N1CCC[C@H]1c1nc2cccc(Cl)c2c(=O)n1-c1ccccc1 |
